According to PMC6152703, “Evaluation of the Antidiabetic Activity and Chemical Composition of Geranium collinum Root Extracts—Computational and Experimental Investigations” (Molecules : A Journal of Synthetic Chemistry and Natural …, 2017):
Where two headings read alike, the source gives them in different places.

Legend:
PTP-1B = molecular target: T1, PTP-1B (Homo sapiens, UniProt P18031); assay: PTP-1B enzyme inhibition assay; format: biochemical; conditions: in vitro enzyme inhibition; for IC50: read-out: Antidiabetic Activity (PTP-1B) IC50 Values (converted)
T1 sequence (P18031 1-435): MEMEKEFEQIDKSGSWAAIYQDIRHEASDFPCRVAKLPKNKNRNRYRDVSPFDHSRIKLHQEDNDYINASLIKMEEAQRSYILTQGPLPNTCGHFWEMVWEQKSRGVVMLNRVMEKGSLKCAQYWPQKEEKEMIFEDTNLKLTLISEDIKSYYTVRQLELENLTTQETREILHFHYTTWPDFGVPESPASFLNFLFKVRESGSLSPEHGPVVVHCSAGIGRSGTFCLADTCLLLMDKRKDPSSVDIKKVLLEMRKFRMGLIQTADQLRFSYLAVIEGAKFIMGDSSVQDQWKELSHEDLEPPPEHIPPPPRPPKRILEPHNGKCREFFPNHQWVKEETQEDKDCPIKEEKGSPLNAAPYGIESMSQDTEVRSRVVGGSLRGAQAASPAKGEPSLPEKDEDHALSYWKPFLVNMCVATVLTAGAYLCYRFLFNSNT
Experimental: (§1) The antidiabetic effect of gallic acid was evaluated in vitro on inhibitory enzymes (α-glucosidase and α-amylase). Antidiabetic activity was determined using PTP-1B inhibition and α-glucosidase procedures. PTP-1B is a negative regulator of the insulin signaling pathway. All extracts of G. collinum were obtained after a period of extraction of 2 h. […] It is well known that polyphenols can provide health benefits to humans attributed to their strong radical-scavenging and antioxidant effects.

α-glucosidase = α-glucosidase (Saccharomyces cerevisiae, UniProt P53341); format: biochemical
Experimental: as §1
α-Glucosidase inhibitory activities were evaluated according to the chromogenic method described by.

[1] = DPPH scavenging assay (antioxidant activity); conditions: 30 min, 517 nm
Experimental: The majority of the antioxidant activities (such as free radical scavenging) of herbal medicines, vegetables and fruits may be due to their phenolic compounds. A lower IC50 value than the standard vitamin C implied a significant antioxidant activity of the tested samples.
Antioxidant activity was measured using the DPPH (1,1-diphenyl-2-picrylhydrazyl) scavenging assay procedure as published in the literature. The extracts were dissolved in DMSO in a concentration of 100 µg/mL. Different concentrations of each extract were prepared in DMSO. Sample solution in different concentrations was added at 2.5 mL in each well of the 96 micro well plate. Into each well was added 1 mL of 0.3 mM DPPH solution in ethanol to produce the test solutions. DMSO (1 mL) was added to produce the blank solutions. Negative control sample was prepared by mixing 1 mL of DPPH solution with 2.5 mL of DMSO. The solutions were kept in the dark at room temperature for 30 min. Absorbance was measured at the wavelength of 517 nm. Ascorbic acid (vitamin C) was used as the standard sample.

α-glucosidase, sequence (P53341 whole entry): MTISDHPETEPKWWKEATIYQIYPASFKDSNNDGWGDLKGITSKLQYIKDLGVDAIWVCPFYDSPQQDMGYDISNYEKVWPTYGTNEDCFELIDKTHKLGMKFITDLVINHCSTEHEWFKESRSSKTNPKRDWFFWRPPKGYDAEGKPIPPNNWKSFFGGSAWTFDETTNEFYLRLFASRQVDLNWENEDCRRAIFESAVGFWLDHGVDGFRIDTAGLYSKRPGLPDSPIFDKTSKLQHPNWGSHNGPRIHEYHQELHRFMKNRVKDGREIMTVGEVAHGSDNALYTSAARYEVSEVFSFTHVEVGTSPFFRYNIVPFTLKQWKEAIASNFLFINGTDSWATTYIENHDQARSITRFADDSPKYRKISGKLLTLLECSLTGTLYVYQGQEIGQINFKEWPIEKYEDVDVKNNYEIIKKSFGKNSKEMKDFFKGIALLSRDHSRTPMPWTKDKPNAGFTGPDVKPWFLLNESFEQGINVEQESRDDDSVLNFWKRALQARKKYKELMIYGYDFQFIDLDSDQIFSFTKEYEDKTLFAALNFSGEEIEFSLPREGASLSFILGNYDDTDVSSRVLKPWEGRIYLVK

Compound: Oc1cc(O)c2c(c1)OC(c1ccc(O)c(O)c1)C(O)C2 (single isomer, unassigned; (+)) [Catechin, (+)-Catechin]
- IC50 (PTP-1B): 2.14 µM
- antidiabetic activities in the α-glucosidase inhibition assay (in words) (α-glucosidase): potent antidiabetic activities

Compound: O=C(O)/C=C/c1ccc(O)c(O)c1 [Caffeic acid]
- IC50 (PTP-1B): 199 µM

Compound: Oc1cc(O)c2c(c1)O[C@H](c1cc(O)c(O)c(O)c1)[C@H](O)C2 [Epigallocatechin, (–)-Epigallocatechin (3,3′,4,5,5′,7-flavanhexol)]
- Antidiabetic Activity (PTP-1B) IC50 Values (PTP-1B): No effect

Compound: Oc1cc(O)c2c(c1)O[C@H](c1ccc(O)c(O)c1)[C@H](O)C2 [Epicatechin, (–)-Epicatechin]
- IC50 (PTP-1B): 0.792 µM
- antidiabetic activities in the α-glucosidase inhibition assay (in words) (α-glucosidase): potent antidiabetic activities

Compound: O=C(O[C@@H]1O[C@@H]2COC(=O)c3cc(O)c(O)c(O)c3-c3c(cc(O)c(O)c3O)C(=O)O[C@H]([C@H]1O)[C@@H]2O)c1cc(O)c(O)c(O)c1 [Corilagin, Corilagin (1-O-galloyl-3,6-O-hexahydroxydiphenoyl-β-D-glucose)]
- IC50 (PTP-1B): 1.37 µM
- antidiabetic activities in the α-glucosidase inhibition assay (in words) (α-glucosidase; in vitro enzyme inhibition): potent antidiabetic activities

Compound: COc1cc2c(=O)oc3c(OC)c(OC)cc4c(=O)oc(c1OC)c2c34 [3,3′,4,4′-Tetra-O-methylellagic acid]
- IC50 (PTP-1B): 60.4 µM
- Antidiabetic Activity (α-Glucosidase) IC50 Values (α-glucosidase; in vitro enzyme inhibition): No effect

Compound: COc1c(O)cc2c(=O)oc3c(OC)c(O)cc4c(=O)oc1c2c34 [3,3′-Di-O-methylellagic acid]
- IC50 (PTP-1B): 19 µM
- Antidiabetic Activity (α-Glucosidase) IC50 Values (α-glucosidase; in vitro enzyme inhibition): No effect

Compound: CC[C@H](CC[C@@H](C)[C@H]1CC[C@H]2[C@@H]3CC=C4C[C@@H](O[C@@H]5O[C@H](CO)[C@@H](O)[C@H](O)[C@H]5O)CC[C@]4(C)[C@H]3CC[C@]12C)C(C)C [Daucosterol, β-Sitosterol-3-O-β-D-glucopyranoside]
- Antidiabetic Activity (PTP-1B) IC50 Values (PTP-1B): No effect

Compound: O=C(O)c1cc(O)c(O)c(O)c1 [Gallic acid]
- Antidiabetic Activity (PTP-1B) IC50 Values (PTP-1B): No effect

Compound: O=c1c(O)c(-c2ccc(O)c(O)c2)oc2cc(O)cc(O)c12 [Quercetin]
- antidiabetic activities in the α-glucosidase inhibition assay (in words) (α-glucosidase; in vitro enzyme inhibition): potent antidiabetic activities

Compound: O=C1O[C@H]([C@@H](O)CO)C(O)=C1O [Vitamin C, Ascorbic acid]
- Antioxidant Activity IC50 Values [1]: 5.34 ± 0.42 µg/mL
